Results on 24 compounds are retold here after article PMC10114720.

A short description of data set [1]: PDMS sheets cleaned by Soxhlet with ethyl acetate; batch shaking method with a mixture of all chemicals at several PDMS-mass to water-volume ratios and spiked levels; vials shaken on an orbital shaker at room temperature in the dark, sampled at two equilibration times; PDMS extracts and water quantified by LC-HRMS (Orbitrap); D from the slope of C_PDMS on C_w or their ratio; value is the mean over that pH's experiments (individual experiments in the SI's concentrations table), sd is the table's stdev. Particulars: PDMS (polydimethylsiloxane silicone sheet), phosphate buffer at three target pH values (the paper's methods).

Data set [2] can be described thus: neutral chemical: log K is the mean of log D over all measurements at the three pH values (D shown independent of pH, paired t-test); sd is the table's stddev. PDMS sheets cleaned by Soxhlet with ethyl acetate; batch shaking method with a mixture of all chemicals at several PDMS-mass to water-volume ratios and spiked levels; vials shaken on an orbital shaker at room temperature in the dark, sampled at two equilibration times; PDMS extracts and water quantified by LC-HRMS (Orbitrap); D from the slope of C_PDMS on C_w or their ratio. The following applies: PDMS (polydimethylsiloxane silicone sheet); phosphate buffer at three target pH values (the paper's methods).

A short description of data set [3]: monoprotic acid or base: log K of the neutral species extrapolated from the linear regression of D on the neutral fraction (from pKa and pH; the paper's eq. for monoprotic IOCs), the slope giving K of the neutral species; replicates column holds the table's 95% confidence limits. PDMS sheets cleaned by Soxhlet with ethyl acetate; batch shaking method with a mixture of all chemicals at several PDMS-mass to water-volume ratios and spiked levels; vials shaken on an orbital shaker at room temperature in the dark, sampled at two equilibration times; PDMS extracts and water quantified by LC-HRMS (Orbitrap); D from the slope of C_PDMS on C_w or their ratio. Particulars: PDMS (polydimethylsiloxane silicone sheet); phosphate buffer at three target pH values (the paper's methods).

Turning to `CC(C)OC(=O)C(C)(C)Oc1ccc(C(=O)c2ccc(Cl)cc2)cc1`, the “log D PDMS/w (apparent distribution ratio at the stated pH)” value in data set [1] (pH 3) is 4.526 log units; D and K as the pape; in data set [1] (pH 7.4), 4.273 log units; D and K as the pape; in data set [1] (pH 11.5), 4.425 log units; D and K as the pape. Moreover, the “log K PDMS/w (neutral species)” value in data set [2] was 4.415 log units; D and K as the pape.
With `CCNc1nc(N)nc(Cl)n1`, the “log D PDMS/w (apparent distribution ratio at the stated pH)” value in data set [1] (pH 3) is 0.21 log units; D and K as the pape; in data set [1] (pH 7.4), 0.2883 log units; D and K as the pape; in data set [1] (pH 11.5), 0.09 log units; D and K as the pape. Besides, the “log K PDMS/w (neutral species)” value in data set [2] was 0.1961 log units; D and K as the pape.
On to `CCCN(CCOc1c(Cl)cc(Cl)cc1Cl)C(=O)NC=O`, for which the “log D PDMS/w (apparent distribution ratio at the stated pH)” value in data set [1] (pH 3) was 2.492 log units; D and K as the pape; in data set [1] (pH 7.4), 2.482 log units; D and K as the pape. Further, the “log K PDMS/w (neutral species)” value in data set [2] is 2.487 log units; D and K as the pape.
For `N#Cc1nn(-c2c(Cl)cc(C(F)(F)F)cc2Cl)c(N)c1SC(F)(F)F`, the “log D PDMS/w (apparent distribution ratio at the stated pH)” value is 2.477 log units; D and K as the pape in data set [1] (pH 3); 2.459 log units; D and K as the pape in data set [1] (pH 7.4); 2.375 log units; D and K as the pape in data set [1] (pH 11.5). Moreover, the “log K PDMS/w (neutral species)” value in data set [2] was 2.436 log units; D and K as the pape.
Regarding `CN(C)c1ccc(C(=O)c2ccc(N(C)C)cc2)cc1`, the “log D PDMS/w (apparent distribution ratio at the stated pH)” value in data set [1] (pH 3) is 2.372 log units; D and K as the pape; in data set [1] (pH 7.4), 2.263 log units; D and K as the pape; in data set [1] (pH 11.5) it was 1.409 log units; D and K as the pape. The “log K PDMS/w (neutral species)” value in data set [2] was 2.057 log units; D and K as the pape.
Turning to `COC(=O)C(c1ccccc1Cl)N1CCc2sccc2C1` (stereo not drawn), the “log D PDMS/w (apparent distribution ratio at the stated pH)” value in data set [1] (pH 3) was 1.25 log units; D and K as the pape; in data set [1] (pH 7.4), -0.5267 log units; D and K as the pape. In data set [2], the “log K PDMS/w (neutral species)” value was 0.9169 log units; D and K as the pape.
For `[O-][n+]1cccc2ccccc21`, the “log D PDMS/w (apparent distribution ratio at the stated pH)” value in data set [1] (pH 3) was 1.066 log units; D and K as the pape; in data set [1] (pH 7.4), 1.11 log units; D and K as the pape; in data set [1] (pH 11.5), 1.203 log units; D and K as the pape. Also, the “log K PDMS/w (neutral species)” value in data set [2] is 1.126 log units; D and K as the pape.
As to `O=C1CC2(CCCCC2)CN1`, the “log D PDMS/w (apparent distribution ratio at the stated pH)” value in data set [1] (pH 3) is 1.311 log units; D and K as the pape; in data set [1] (pH 7.4), 1.249 log units; D and K as the pape; in data set [1] (pH 11.5), 1.271 log units; D and K as the pape. The “log K PDMS/w (neutral species)” value in data set [2] was 1.277 log units; D and K as the pape.
As for `CCCCCCCCCCCC(=O)NCC(C)O` (stereo not drawn), the “log D PDMS/w (apparent distribution ratio at the stated pH)” value in data set [1] (pH 3) is 3.188 log units; D and K as the pape; in data set [1] (pH 7.4), 3.329 log units; D and K as the pape; in data set [1] (pH 11.5) it was 3.181 log units; D and K as the pape. For the same compound, in data set [2], the “log K PDMS/w (neutral species)” value was 3.231 log units; D and K as the pape.
`CC(C)c1ccc2sc3ccccc3c(=O)c2c1`: the “log D PDMS/w (apparent distribution ratio at the stated pH)” value in data set [1] (pH 3) is 4.266 log units; D and K as the pape; in data set [1] (pH 7.4), 4.252 log units; D and K as the pape; in data set [1] (pH 11.5) it was 4.168 log units; D and K as the pape. For the same compound, in data set [2], the “log K PDMS/w (neutral species)” value is 4.227 log units; D and K as the pape.
On to `CC=CC(=O)N(CC)c1ccccc1C` (mixture of isomers), for which the “log D PDMS/w (apparent distribution ratio at the stated pH)” value in data set [1] (pH 3) was 2.104 log units; D and K as the pape; in data set [1] (pH 7.4) it was 2.038 log units; D and K as the pape; in data set [1] (pH 11.5) it was 2.025 log units; D and K as the pape. The “log K PDMS/w (neutral species)” value in data set [2] is 2.056 log units; D and K as the pape.
For the compound `COCCOCCOCCOCCOC`, the “log D PDMS/w (apparent distribution ratio at the stated pH)” value was 0.372 log units; D and K as the pape in data set [1] (pH 3); 0.424 log units; D and K as the pape in data set [1] (pH 7.4); 0.53 log units; D and K as the pape in data set [1] (pH 11.5). Also, the “log K PDMS/w (neutral species)” value in data set [2] is 0.442 log units; D and K as the pape.
Consider `CCOC(=O)C(C)(C)Oc1ccc(Cl)cc1`, for which the “log D PDMS/w (apparent distribution ratio at the stated pH)” value was 1.764 log units; D and K as the pape in data set [1] (pH 3); 1.684 log units; D and K as the pape in data set [1] (pH 7.4); 1.69 log units; D and K as the pape in data set [1] (pH 11.5). In addition, the “log K PDMS/w (neutral species)” value in data set [2] was 1.711 log units; D and K as the pape.
In the case of `CN(C)C(=O)Nc1ccc(Cl)c(Cl)c1`, the “log D PDMS/w (apparent distribution ratio at the stated pH)” value in data set [1] (pH 3) is 1.406 log units; D and K as the pape; in data set [1] (pH 7.4), 1.371 log units; D and K as the pape; in data set [1] (pH 11.5) it was 1.462 log units; D and K as the pape. Moreover, in data set [2], the “log K PDMS/w (neutral species)” value was 1.409 log units; D and K as the pape.
For the compound `CCCCCCCCn1sccc1=O`, the “log D PDMS/w (apparent distribution ratio at the stated pH)” value in data set [1] (pH 3) was 3.047 log units; D and K as the pape; in data set [1] (pH 7.4) it was 2.926 log units; D and K as the pape; in data set [1] (pH 11.5), 2.893 log units; D and K as the pape. Moreover, the “log K PDMS/w (neutral species)” value in data set [2] was 2.956 log units; D and K as the pape.
With `CN(C)S(=O)(=O)c1ccc(N)cc1`, the “log D PDMS/w (apparent distribution ratio at the stated pH)” value in data set [1] (pH 3) is -0.06167 log units; D and K as the pape; in data set [1] (pH 7.4) it was -0.02167 log units; D and K as the pape; in data set [1] (pH 11.5) it was 0.01333 log units; D and K as the pape. The “log K PDMS/w (neutral species)” value in data set [2] was -0.02333 log units; D and K as the pape.
For the compound `Cc1c(C=O)c(=O)n(-c2ccccc2)n1C`, the “log D PDMS/w (apparent distribution ratio at the stated pH)” value in data set [1] (pH 3) was -0.2614 log units; D and K as the pape; in data set [1] (pH 7.4) it was -0.1813 log units; D and K as the pape; in data set [1] (pH 11.5), -0.1629 log units; D and K as the pape. Besides, the “log K PDMS/w (neutral species)” value in data set [2] was -0.2009 log units; D and K as the pape.
As for `CCC(C(N)=O)(C(N)=O)c1ccccc1`, the “log D PDMS/w (apparent distribution ratio at the stated pH)” value in data set [1] (pH 3) is -0.586 log units; D and K as the pape; in data set [1] (pH 7.4) it was -0.585 log units; D and K as the pape; in data set [1] (pH 11.5), -0.5033 log units; D and K as the pape. Besides, the “log K PDMS/w (neutral species)” value in data set [2] is -0.5565 log units; D and K as the pape.
In the case of `O=C(/C=C/C=C/c1ccc2c(c1)OCO2)N1CCCCC1`, the “log D PDMS/w (apparent distribution ratio at the stated pH)” value was 3.24 log units; D and K as the pape in data set [1] (pH 3); 3.109 log units; D and K as the pape in data set [1] (pH 7.4); 3.066 log units; D and K as the pape in data set [1] (pH 11.5). Further, the “log K PDMS/w (neutral species)” value in data set [2] was 3.135 log units; D and K as the pape.
Consider `CC(C)Nc1nc(N)nc(Cl)n1`, for which the “log D PDMS/w (apparent distribution ratio at the stated pH)” value in data set [1] (pH 3) was 0.418 log units; D and K as the pape; in data set [1] (pH 7.4) it was 0.4125 log units; D and K as the pape; in data set [1] (pH 11.5), 0.411 log units; D and K as the pape. Also, the “log K PDMS/w (neutral species)” value in data set [2] was 0.4139 log units; D and K as the pape.
With `Clc1cccc(Cl)c1NC1=NCCN1`, the “log D PDMS/w (apparent distribution ratio at the stated pH)” value was 0.07 log units; D and K as the pape in data set [1] (pH 3); 1.56 log units; D and K as the pape in data set [1] (pH 7.4). Moreover, the “log K PDMS/w (neutral species)” value in data set [3] was 2.618 log units; D and K as the pape.
Regarding `c1ccc2sc(N3CCOCC3)nc2c1`, the “log D PDMS/w (apparent distribution ratio at the stated pH)” value in data set [1] (pH 3) was 1.704 log units; D and K as the pape; in data set [1] (pH 7.4), 1.897 log units; D and K as the pape; in data set [1] (pH 11.5) it was 1.881 log units; D and K as the pape. The “log K PDMS/w (neutral species)” value in data set [3] is 2.029 log units; D and K as the pape.
With `CCOC(=O)CC(O)(CC(=O)OCC)C(=O)OCC`, the “log D PDMS/w (apparent distribution ratio at the stated pH)” value is 1.101 log units; D and K as the pape in data set [1] (pH 3); 1.143 log units; D and K as the pape in data set [1] (pH 7.4). Besides, the “log K PDMS/w (neutral species)” value in data set [3] is 0.9455 log units; D and K as the pape.
For `O=C(O)CCC(=O)c1ccc(F)cc1`, in data set [1] (pH 3), the “log D PDMS/w (apparent distribution ratio at the stated pH)” value was -0.02167 log units; D and K as the pape. Further, the “log K PDMS/w (neutral species)” value in data set [3] was 0.05461 log units; D and K as the pape.
